Measured values reported in PubChem BioAssay (NCI).
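Protocol summary: plate cells (96-well), add compound at 5 concentrations, incubate 48 h, interpolate endpoints linearly. Here, GI50 denotes the concentration required for 50% inhibition of growth. Definition used: TGI = concentration required for complete inhibition of growth.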

What was measured:
Test in all cases: growth of human tumour cells (NCI), 48 h
SF-295 CNS = test system: SF-295 CNS
M14 melanoma = test system: M14 melanoma
U251 CNS = test system: U251 CNS
HCC-2998 colon = test system: HCC-2998 colon
SF-268 CNS = test system: SF-268 CNS
MOLT-4 leukemia = test system: MOLT-4 leukemia
DU-145 prostate = test system: DU-145 prostate
UO-31 renal = test system: UO-31 renal
OVCAR-3 ovarian = test system: OVCAR-3 ovarian
HT29 colon = test system: HT29 colon
BT-549 breast = test system: BT-549 breast
CCRF-CEM leukemia = test system: CCRF-CEM leukemia
MALME-3M melanoma = test system: MALME-3M melanoma
KM12 colon = test system: KM12 colon
UACC-62 melanoma = test system: UACC-62 melanoma
PC-3 prostate = test system: PC-3 prostate
MDA-MB-231 breast = test system: MDA-MB-231 breast
SK-MEL-5 melanoma = test system: SK-MEL-5 melanoma
NCI-H23 lung = test system: NCI-H23 lung
K-562 leukemia = test system: K-562 leukemia
HL-60(TB) leukemia = test system: HL-60(TB) leukemia
HS 578T breast = test system: HS 578T breast
A498 renal = test system: A498 renal
OVCAR-4 ovarian = test system: OVCAR-4 ovarian
RPMI-8226 leukemia = test system: RPMI-8226 leukemia
TK-10 renal = test system: TK-10 renal
SK-MEL-2 melanoma = test system: SK-MEL-2 melanoma
EKVX NSCLC = test system: EKVX NSCLC
SR leukemia = test system: SR leukemia
786-0 renal = test system: 786-0 renal
T-47D breast = test system: T-47D breast
OVCAR-5 ovarian = test system: OVCAR-5 ovarian
A549 NSCLC = test system: A549 NSCLC
NCI-H460 lung = test system: NCI-H460 lung
NCI-H522 lung = test system: NCI-H522 lung
IGROV1 ovarian = test system: IGROV1 ovarian
HCT-116 colon = test system: HCT-116 colon
HOP-92 NSCLC = test system: HOP-92 NSCLC
SN12C renal = test system: SN12C renal
SW-620 colon = test system: SW-620 colon
SNB-75 CNS = test system: SNB-75 CNS
CAKI-1 renal = test system: CAKI-1 renal
NCI/ADR-RES ovarian = test system: NCI/ADR-RES ovarian
HCT-15 colon = test system: HCT-15 colon
SF-539 CNS = test system: SF-539 CNS
MCF7 breast = test system: MCF7 breast
HOP-62 NSCLC = test system: HOP-62 NSCLC
LOX IMVI melanoma = test system: LOX IMVI melanoma
SNB-19 CNS = test system: SNB-19 CNS
RXF 393 renal = test system: RXF 393 renal
OVCAR-8 ovarian = test system: OVCAR-8 ovarian
COLO 205 colon = test system: COLO 205 colon
NCI-H226 lung = test system: NCI-H226 lung
ACHN renal = test system: ACHN renal
SK-OV-3 ovarian = test system: SK-OV-3 ovarian
SK-MEL-28 melanoma = test system: SK-MEL-28 melanoma

## COc1ccc(C(O)c2cc3c(N)c(C(=O)Nc4ccccc4)sc3nc2C)cc1 (stereo unspecified)
SF-295 CNS
  GI50: 35.2 nM
  TGI: 12600 nM
M14 melanoma
  GI50: 34.9 nM
  TGI: > 100000 nM
U251 CNS
  GI50: 42.5 nM
  TGI: 29700 nM
HCC-2998 colon
  GI50: 102 nM
  TGI: 3790 nM
SF-268 CNS
  GI50: 174 nM
  TGI: > 70000 nM
MOLT-4 leukemia
  GI50: 50.8 nM
  TGI: > 100000 nM
DU-145 prostate
  GI50: 41.4 nM
  TGI: 50600 nM
UO-31 renal
  GI50: 70.6 nM
  TGI: 49800 nM
OVCAR-3 ovarian
  GI50: 32.1 nM
  TGI: 1270 nM
HT29 colon
  GI50: 33.3 nM
  TGI: 8600 nM
BT-549 breast
  GI50: 186 nM
  TGI: 36400 nM
CCRF-CEM leukemia
  GI50: 38.3 nM
  TGI: > 100000 nM
MALME-3M melanoma
  GI50: 51 nM
  TGI: 35100 nM
KM12 colon
  GI50: 40.3 nM
  TGI: > 100000 nM
UACC-62 melanoma
  GI50: 39.7 nM
  TGI: 19400 nM
PC-3 prostate
  GI50: 140 nM
  TGI: > 74300 nM
MDA-MB-231 breast
  GI50: 72.8 nM
  TGI: 9630 nM
SK-MEL-5 melanoma
  GI50: 35.9 nM
  TGI: 591 nM
NCI-H23 lung
  GI50: 75.4 nM
  TGI: > 50100 nM
K-562 leukemia
  GI50: 38.2 nM
  TGI: > 100000 nM
HL-60(TB) leukemia
  GI50: 32.4 nM
  TGI: 459 nM
HS 578T breast
  GI50: 30.5 nM
  TGI: 3010 nM
A498 renal
  GI50: 26.2 nM
  TGI: 2790 nM
OVCAR-4 ovarian
  GI50: 2030 nM
  TGI: > 100000 nM
RPMI-8226 leukemia
  GI50: 41.6 nM
  TGI: > 100000 nM
TK-10 renal
  GI50: 4510 nM
  TGI: 49800 nM
SK-MEL-2 melanoma
  GI50: 238 nM
  TGI: > 100000 nM
EKVX NSCLC
  GI50: 61.7 nM
  TGI: > 100000 nM
SR leukemia
  GI50: 33.3 nM
  TGI: > 100000 nM
786-0 renal
  GI50: 76.3 nM
  TGI: 25300 nM
T-47D breast
  GI50: 51.4 nM
  TGI: > 100000 nM
OVCAR-5 ovarian
  GI50: 71.4 nM
  TGI: 25400 nM
A549 NSCLC
  GI50: 62.8 nM
  TGI: > 100000 nM
NCI-H460 lung
  GI50: 36.1 nM
  TGI: 11100 nM
NCI-H522 lung
  GI50: 34.7 nM
  TGI: 2570 nM
IGROV1 ovarian
  GI50: 94 nM
  TGI: 22600 nM
HCT-116 colon
  GI50: 42.5 nM
  TGI: > 35400 nM
HOP-92 NSCLC
  GI50: 54.6 nM
  TGI: 12100 nM
SN12C renal
  GI50: 62.8 nM
  TGI: 29500 nM
SW-620 colon
  GI50: 39.1 nM
  TGI: > 100000 nM
SNB-75 CNS
  GI50: 26.7 nM
  TGI: 21900 nM
CAKI-1 renal
  GI50: 41.6 nM
  TGI: 20700 nM
NCI/ADR-RES ovarian
  GI50: 38.1 nM
  TGI: 2020 nM
HCT-15 colon
  GI50: 40.3 nM
  TGI: > 100000 nM
SF-539 CNS
  GI50: 34.8 nM
  TGI: 825 nM
MCF7 breast
  GI50: 34.5 nM
  TGI: 19300 nM
HOP-62 NSCLC
  GI50: 77.4 nM
  TGI: 68600 nM
LOX IMVI melanoma
  GI50: 53.9 nM
  TGI: > 100000 nM
SNB-19 CNS
  GI50: 44.3 nM
  TGI: 20400 nM
RXF 393 renal
  GI50: 28.6 nM
  TGI: 911 nM
OVCAR-8 ovarian
  GI50: 63.6 nM
  TGI: > 100000 nM
COLO 205 colon
  GI50: 219 nM
  TGI: 1800 nM
NCI-H226 lung
  GI50: 57.9 nM
  TGI: 1870 nM
ACHN renal
  GI50: 68.3 nM
  TGI: 27500 nM
SK-OV-3 ovarian
  GI50: 53.9 nM
  TGI: 25400 nM

## CCOC(=O)c1cc(C(=O)c2cc(OC)c(OC)c(OC)c2)n2nc(C)ccc12
SF-295 CNS
  GI50: 65.7 nM
  TGI: > 100000 nM
U251 CNS
  GI50: 331 nM
  TGI: > 100000 nM
HCC-2998 colon
  GI50: 493 nM
  TGI: > 100000 nM
SF-268 CNS
  GI50: 550 nM
  TGI: > 100000 nM
MOLT-4 leukemia
  GI50: 396 nM
  TGI: > 100000 nM
DU-145 prostate
  GI50: 391 nM
  TGI: > 100000 nM
UO-31 renal
  GI50: 452 nM
  TGI: > 100000 nM
OVCAR-3 ovarian
  GI50: 64.8 nM
  TGI: 1270 nM
HT29 colon
  GI50: 133 nM
  TGI: > 100000 nM
BT-549 breast
  GI50: 878 nM
  TGI: > 100000 nM
CCRF-CEM leukemia
  GI50: 212 nM
  TGI: > 100000 nM
KM12 colon
  GI50: 57.7 nM
  TGI: > 100000 nM
UACC-62 melanoma
  GI50: 61.5 nM
  TGI: > 100000 nM
PC-3 prostate
  GI50: 93.9 nM
  TGI: > 100000 nM
MDA-MB-231 breast
  GI50: 524 nM
  TGI: > 100000 nM
SK-MEL-5 melanoma
  GI50: 58.5 nM
  TGI: 3320 nM
NCI-H23 lung
  GI50: 418 nM
  TGI: > 100000 nM
HL-60(TB) leukemia
  GI50: 160 nM
  TGI: 588 nM
HS 578T breast
  GI50: 190 nM
  TGI: > 100000 nM
A498 renal
  GI50: 76.2 nM
  TGI: 931 nM
OVCAR-4 ovarian
  GI50: 1720 nM
  TGI: > 100000 nM
TK-10 renal
  GI50: > 100000 nM
  TGI: > 100000 nM
SK-MEL-2 melanoma
  GI50: 495 nM
  TGI: > 100000 nM
EKVX NSCLC
  GI50: 479 nM
  TGI: > 100000 nM
SR leukemia
  GI50: 48.1 nM
  TGI: > 100000 nM
786-0 renal
  GI50: 335 nM
  TGI: > 100000 nM
T-47D breast
  GI50: > 100000 nM
  TGI: > 100000 nM
OVCAR-5 ovarian
  GI50: 472 nM
  TGI: > 100000 nM
A549 NSCLC
  GI50: 223 nM
  TGI: > 100000 nM
NCI-H460 lung
  GI50: 133 nM
  TGI: > 100000 nM
NCI-H522 lung
  GI50: 171 nM
  TGI: > 100000 nM
IGROV1 ovarian
  GI50: 379 nM
  TGI: > 100000 nM
HCT-116 colon
  GI50: 164 nM
  TGI: > 100000 nM
HOP-92 NSCLC
  GI50: 3520 nM
  TGI: > 100000 nM
SN12C renal
  GI50: 665 nM
  TGI: > 100000 nM
SW-620 colon
  GI50: 68.7 nM
  TGI: > 100000 nM
NCI/ADR-RES ovarian
  GI50: 123 nM
  TGI: 1930 nM
HCT-15 colon
  GI50: 84.4 nM
  TGI: > 100000 nM
SF-539 CNS
  GI50: 130 nM
  TGI: 771 nM
MCF7 breast
  GI50: 48.1 nM
  TGI: > 100000 nM
HOP-62 NSCLC
  GI50: 398 nM
  TGI: > 100000 nM
LOX IMVI melanoma
  GI50: 498 nM
  TGI: > 100000 nM
SNB-19 CNS
  GI50: 420 nM
  TGI: > 100000 nM
OVCAR-8 ovarian
  GI50: 518 nM
  TGI: > 100000 nM
SK-MEL-28 melanoma
  GI50: 12000 nM
  TGI: > 100000 nM
NCI-H226 lung
  GI50: 45000 nM
  TGI: > 100000 nM
ACHN renal
  GI50: 524 nM
  TGI: > 100000 nM
SK-OV-3 ovarian
  GI50: 546 nM
  TGI: > 100000 nM
